Results on 4 molecules are retold here after patent US7235252B2, “Method of preparing organic peroxyacids” (priority 2002, dated 2007).

Data set [1] is described as follows: Peracetic acid formation rate and stability with N-acyl donors in parent solution (double titration). The following applies: equimolar N-acyl donor dispersed in parent solution. Type of data set: physicochemical. An excerpt: The other conditions (temperature, humidity, generator composition) being the same, equimolar amounts of the three N-acyl donors were dispersed in the parent solution to determine the formation rate of peracetic acid in the solution and the stability with time of such a concentration. The method adopted for quantitative determination of organic peroxyacid in the presence of a large excess of hydrogen peroxide (in this and in the following tests) was a sequential double-titration, the first of which is a permanganometric test designed to titre and eliminate any hydrogen peroxide in excess, and this was immediately followed by an iodometric titration to determine the concentration of the remaining organic peroxide. The results are shown below, both as activation rate (see FIG. 1), and stability of the peracetic acid concentration (see FIG. 2) are concerned.

A short description of data set [2]: Preliminary assessment of acetyl donating compounds. Type of data set: physicochemical. The source says:
Search work was initially directed towards finding out the best N-acyl and/or O-acyl activator of all those available and disclosed in the prior art referred to above. The features sought for in this initial search were: • a rapidly acting acylating agent (i.e. provided with an electrophilic carbonyl carbon) suitable for causing a perhydrolysis reaction due to electron-withdrawing effect on the carbonyl carbon and for providing a sufficiently high concentration of its respective peracid within short times (20–30 minutes) for the specified objects; • a good conservation under standard storage conditions (at temperatures ranging from 20° and 40° C.). • an ability to yield after activation an activated solution in which the organic peroxyacid concentration is as stable as possible. […]

Data set [3] concerns bacterial spores (sporicidal activity). Kind of data set: Minimum effective concentration (CME) by sporicidal activity. The following applies: minimum peracetic acid concentration with sporicidal activity over contact time of 15 minutes. It counts as cell-based. How it is done:
In the search study carried out with an endoscope washing machine, the solution was used by operating 10 full daily cycles of high-level disinfection or, better, cold-chemical sterilization for a total of 120 cycles. The contact time set for the sterilization step was 30 minutes. As it will be noted, immediately after activation, the concentration increases at a fast-rate, overcomes the minimum effective concentration level (Minimum Effective Concentration Level ═CME) equal to 0.05% w/v just after 15–20 minutes and reaches a maximum value equal to 0.35% w/v after 24 hours. During the following days, concentration decreases slowly down to a minimum effective level below which the effectiveness set forth below is not provided any longer. This threshold level (CME) was fixed and defined by means of the minimum % concentration of peracetic acid at which a sporicidal activity is still detected over a contact time of 15 minutes.

As for `CC(=O)N1CCCCCC1=O` [N-acetylcaprolactam], the “Stability of peracetic acid concentration with time (FIG. 2)” value (“Stability … (FIG. 2)” for short) in data set [1] was “good stability”.

As to `CC(=O)N1C(=O)CCC1=O` [N-acetylsuccinimide], the “Stability … (FIG. 2)” value in data set [1] was “behavior similar to that of N-OSU”. For the same molecule, in data set [2], the “Stability under standard storage conditions” value was “poor stability”.

Regarding `CC(=O)OO` [peracetic acid], the “Minimum Effective Concentration Level (CME)” value in data set [3] was determined as 0.05 % w/v.

For the molecule `CC(=O)ON1C(=O)CCC1=O` [N-acetoxysuccinimide], in data set [1], the “Stability … (FIG. 2)” value is “poor stability with time”. Besides, the “Stability under standard storage conditions” value in data set [2] is reported as “poor stability”.
